Assays:
[1] = Antiproliferative activity against B cells (unknown origin); type: functional, cell-based; conditions: B-cell
[2] = Half life in Sprague-Dawley rat at 2 mg/kg, po; type: ADME, organism-based; conditions: in vivo
[3] = Cmax in Sprague-Dawley rat at 2 mg/kg, po; type: ADME, organism-based; parameters: dose 2 mg/kg, route oral; conditions: in vivo
[4] = target: Tyrosine-protein kinase BTK (Homo sapiens, UniProt Q06187); test: Inhibition of BTK (unknown origin)
[5] = Oral bioavailability in Sprague-Dawley rat at 2 mg/kg; type: ADME, organism-based; conditions: in vivo
[6] = AUC(0 to t) in Sprague-Dawley rat at 2 mg/kg, po; type: ADME, organism-based; conditions: in vivo
[7] = Plasma clearance in Sprague-Dawley rat at 2 mg/kg, iv; type: ADME, organism-based
[8] = Metabolic stability in human plasma assessed as remaining compound at 1 uM after 4 hrs by LC-MS/MS analysis; type: ADME, cell-free; conditions: read-out: Stability
[9] = Metabolic stability in Sprague-Dawley rat plasma assessed as remaining compound at 1 uM after 4 hrs by LC-MS/MS analysis; type: ADME, cell-free; conditions: read-out: Stability
[10] = Metabolic stability in Beagle dog plasma assessed as remaining compound at 1 uM after 4 hrs by LC-MS/MS analysis; type: ADME, cell-free, Canis lupus familiaris; conditions: read-out: Stability

Chain of Tyrosine-protein kinase BTK (Q06187 whole entry): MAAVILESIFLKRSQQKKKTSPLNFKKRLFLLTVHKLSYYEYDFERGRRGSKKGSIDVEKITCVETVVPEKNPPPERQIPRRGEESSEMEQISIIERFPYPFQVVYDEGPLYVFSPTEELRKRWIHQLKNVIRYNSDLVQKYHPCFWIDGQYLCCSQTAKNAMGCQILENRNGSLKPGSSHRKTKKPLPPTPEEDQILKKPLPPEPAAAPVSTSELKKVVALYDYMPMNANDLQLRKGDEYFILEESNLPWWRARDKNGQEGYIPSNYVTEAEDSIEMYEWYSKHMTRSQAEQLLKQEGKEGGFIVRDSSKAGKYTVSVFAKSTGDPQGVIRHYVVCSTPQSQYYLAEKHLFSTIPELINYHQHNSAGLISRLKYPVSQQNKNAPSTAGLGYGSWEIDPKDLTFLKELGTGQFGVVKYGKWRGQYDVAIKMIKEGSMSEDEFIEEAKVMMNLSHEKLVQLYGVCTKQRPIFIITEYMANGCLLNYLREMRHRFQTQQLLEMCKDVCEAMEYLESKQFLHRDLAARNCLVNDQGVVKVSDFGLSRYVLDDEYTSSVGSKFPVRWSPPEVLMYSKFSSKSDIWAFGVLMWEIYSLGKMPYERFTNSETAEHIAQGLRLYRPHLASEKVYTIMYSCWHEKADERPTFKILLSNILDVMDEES

IC50 [4] | Structure (SMILES) | IC50 [1] | other results
13 nM | C=CC(=O)Nc1cccc(-n2c(=O)n(C)c3cnc(Nc4ccc(Oc5ccnc(C(=O)NC)c5)cc4)nc32)c1 | 13.7 nM | half-life [2]: 144 min; Cmax [3]: 107 ng/mL; bioavailability [5]: 9%; AUC(0-t) [6]: 100 ng·h/mL; clearance [7]: 30 mL/min/kg
318 nM | C=CC(=O)Nc1cccc(-n2c(=O)n(C3CCOCC3)c3cnc(Nc4ccc(OC)nc4)nc32)c1 |  | 
31.2 nM | C=CC(=O)Nc1cccc(Nc2nc(Nc3ccc(OCCOC)cc3)ncc2S(C)(=O)=O)c1 |  | 
4.11 nM | C=CC(=O)Nc1cccc(-n2c(=O)n(C)c3cnc(Nc4ccc(OCCOC)cc4)nc32)c1 | 6.84 nM | half-life [2]: 84 min; Cmax [3]: 41 ng/mL; bioavailability [5]: 20%; remaining at 4 h, 1 µM [8]: 42.2%; remaining at 4 h, 1 µM [9]: 27.5%; AUC(0-t) [6]: 27 ng·h/mL; clearance [7]: 253 mL/min/kg; remaining at 4 h, 1 µM [10]: 16.2%
31 nM | C=CC(=O)Nc1cccc(-n2c(=O)n(CC3CC3)c3cnc(Nc4ccc(N5CCOCC5)cc4)nc32)c1 | 70.6 nM | remaining at 4 h, 1 µM [8]: 40.8%; remaining at 4 h, 1 µM [9]: 80.5%; remaining at 4 h, 1 µM [10]: 93.4%
265 nM | C=CC(=O)Nc1cccc(-n2c(=O)n(CCOC)c3cnc(Nc4ccc(OC)nc4)nc32)c1 |  | 
6.6 nM | C=CC(=O)Nc1cccc(Nc2nc(Nc3ccc(OCCOC)cc3)ncc2SC)c1 | 30.6 nM | 
1.08 nM | C=CC(=O)Nc1cccc(Nc2nc(Nc3ccc(N4CCOCC4)cc3)ncc2SC)c1 | 64 nM | 
222 nM | C=CC(=O)Nc1cccc(-n2c(=O)n(CC3CC3)c3cnc(Nc4ccc(OC)nc4)nc32)c1 |  | 
30.6 nM | C=CC(=O)Nc1cccc(-n2c(=O)n(CC3CC3)c3cnc(Nc4ccc(N(C)C)nc4)nc32)c1 | 818 nM | 
0.903 nM | C=CC(=O)Nc1cccc(Nc2nc(Nc3ccc(N4CCOCC4)cc3)ncc2[S+](C)[O-])c1 (racemic) | 3.55 nM | 
3.76 nM | C=CC(=O)Nc1cccc(Nc2nc(Nc3ccc(OCCOC)cc3)ncc2[S+](C)[O-])c1 (racemic) | 5.85 nM | half-life [2]: 78 min; Cmax [3]: 55 ng/mL; bioavailability [5]: 23%; remaining at 4 h, 1 µM [8]: 86.7%; remaining at 4 h, 1 µM [9]: 90.7%; AUC(0-t) [6]: 73 ng·h/mL; clearance [7]: 108 mL/min/kg; remaining at 4 h, 1 µM [10]: 94.3%
1.48 nM | C=CC(=O)Nc1cccc(Nc2nc(Nc3ccc(N(C)C)nc3)ncc2[S+](C)[O-])c1 (racemic) | 14.9 nM | 
5.65 nM | C=CC(=O)Nc1cccc(Nc2nc(Nc3ccc(Oc4ccnc(C(=O)NC)c4)cc3)ncc2[S+](C)[O-])c1 (racemic) | 19.4 nM | 
 | C=CC(=O)Nc1cccc(Nc2nc(Nc3ccc(OCCOC)cc3)ncc2F)c1 [SPEBRUTINIB] | 3.28 nM | 

From ChEMBL document CHEMBL3784966, “Approaching the active conformation of 1,3-diaminopyrimidine based covalent inhibitors of Bruton's tyrosine kinase for treatment of Rheumatoid arthritis” (Bioorg Med Chem Lett, 2016)
